Experimental data as given in patent publication US8604217B2, “Compound, a process for its preparation, a pharmaceutical composition, use of a compound, a method for modulating or regulating serine/threonine kinases and a serine/threonine kinases modulating agent” (Selvita S.A., priority 2009, dated 2013).

How the values were obtained:
Test in all cases: KinaseProfiler kinase panel
Assay type in all cases: biochemical
EphA4(h) = EphA4(h) (Homo sapiens (Human), UniProt P54764)
PKCη(h) = PKCη(h) (Homo sapiens (Human), UniProt P24723)
ZAP-70(h) = ZAP-70(h) (Homo sapiens (Human), UniProt P43403)
Sequence of ZAP-70(h) (P43403 whole entry): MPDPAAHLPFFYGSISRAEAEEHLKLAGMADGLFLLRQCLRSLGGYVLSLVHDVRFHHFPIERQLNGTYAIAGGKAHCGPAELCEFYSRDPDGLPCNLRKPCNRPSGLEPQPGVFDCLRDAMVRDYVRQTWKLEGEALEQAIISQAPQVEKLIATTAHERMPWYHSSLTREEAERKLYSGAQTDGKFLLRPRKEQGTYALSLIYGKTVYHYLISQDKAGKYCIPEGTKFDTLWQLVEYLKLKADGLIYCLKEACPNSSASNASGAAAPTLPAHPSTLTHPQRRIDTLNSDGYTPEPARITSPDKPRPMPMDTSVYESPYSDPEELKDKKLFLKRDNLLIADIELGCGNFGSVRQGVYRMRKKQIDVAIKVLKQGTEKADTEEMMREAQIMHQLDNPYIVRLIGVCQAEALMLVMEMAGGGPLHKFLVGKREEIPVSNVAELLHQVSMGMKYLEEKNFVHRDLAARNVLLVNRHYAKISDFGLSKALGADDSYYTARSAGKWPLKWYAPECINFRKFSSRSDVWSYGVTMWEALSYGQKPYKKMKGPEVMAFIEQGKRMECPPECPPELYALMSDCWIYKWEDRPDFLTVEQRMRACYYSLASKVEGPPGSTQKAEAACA

Sequence of EphA4(h) (P54764 20-986): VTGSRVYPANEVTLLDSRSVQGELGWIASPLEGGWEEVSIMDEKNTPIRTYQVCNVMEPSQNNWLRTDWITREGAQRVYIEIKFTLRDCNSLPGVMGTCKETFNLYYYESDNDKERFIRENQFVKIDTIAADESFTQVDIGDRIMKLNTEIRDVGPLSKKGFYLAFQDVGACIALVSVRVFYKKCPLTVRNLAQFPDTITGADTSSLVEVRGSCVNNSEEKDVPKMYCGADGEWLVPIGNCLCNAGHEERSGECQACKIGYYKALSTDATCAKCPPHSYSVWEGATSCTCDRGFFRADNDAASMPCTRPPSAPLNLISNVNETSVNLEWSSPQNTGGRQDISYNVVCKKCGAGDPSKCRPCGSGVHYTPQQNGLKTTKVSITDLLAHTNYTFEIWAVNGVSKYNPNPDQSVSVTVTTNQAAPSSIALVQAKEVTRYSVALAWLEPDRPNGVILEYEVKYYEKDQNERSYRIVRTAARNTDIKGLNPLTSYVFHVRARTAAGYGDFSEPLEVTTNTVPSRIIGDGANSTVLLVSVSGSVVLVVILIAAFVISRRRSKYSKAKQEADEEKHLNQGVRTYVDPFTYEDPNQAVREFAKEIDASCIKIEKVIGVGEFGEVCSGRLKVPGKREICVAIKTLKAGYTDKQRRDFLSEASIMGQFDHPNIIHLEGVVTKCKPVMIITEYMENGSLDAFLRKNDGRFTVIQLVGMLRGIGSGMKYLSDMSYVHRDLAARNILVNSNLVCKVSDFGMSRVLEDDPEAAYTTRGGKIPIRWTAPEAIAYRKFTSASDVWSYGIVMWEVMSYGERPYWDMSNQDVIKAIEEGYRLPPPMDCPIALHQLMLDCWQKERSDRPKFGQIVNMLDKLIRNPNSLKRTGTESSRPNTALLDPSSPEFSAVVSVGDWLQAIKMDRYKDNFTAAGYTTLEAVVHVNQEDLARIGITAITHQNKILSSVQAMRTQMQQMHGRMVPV
Sequence of PKCη(h) (P24723 whole entry): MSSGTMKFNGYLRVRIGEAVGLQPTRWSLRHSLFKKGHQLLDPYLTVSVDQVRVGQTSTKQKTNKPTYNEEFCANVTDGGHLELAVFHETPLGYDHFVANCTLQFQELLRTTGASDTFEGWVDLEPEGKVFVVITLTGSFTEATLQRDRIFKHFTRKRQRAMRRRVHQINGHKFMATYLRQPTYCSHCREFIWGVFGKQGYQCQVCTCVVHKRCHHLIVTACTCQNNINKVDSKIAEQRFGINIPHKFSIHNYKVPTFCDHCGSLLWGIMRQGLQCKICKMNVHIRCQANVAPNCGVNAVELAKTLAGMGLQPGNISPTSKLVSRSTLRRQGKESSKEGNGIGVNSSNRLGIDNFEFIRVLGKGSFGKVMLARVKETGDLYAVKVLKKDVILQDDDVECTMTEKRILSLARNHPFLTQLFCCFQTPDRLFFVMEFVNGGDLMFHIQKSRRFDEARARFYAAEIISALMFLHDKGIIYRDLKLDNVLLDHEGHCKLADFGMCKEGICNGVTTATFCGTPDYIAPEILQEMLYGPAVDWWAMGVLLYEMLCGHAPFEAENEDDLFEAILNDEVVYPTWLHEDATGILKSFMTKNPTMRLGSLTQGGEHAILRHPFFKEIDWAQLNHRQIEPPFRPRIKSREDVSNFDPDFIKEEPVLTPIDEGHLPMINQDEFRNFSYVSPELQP

`CCn1c(N2CCNCC2)nc2c(Br)c(Br)c(Br)c(Br)c21` [Compound 416, 4,5,6,7-tetrabromo-1-ethyl-2-(piperazin-1-yl)-1H-benzo[d]imidazole] showed a remaining activity at 1 µM (EphA4(h)) of 99%, a remaining activity at 1 µM (PKCη(h)) of 92% and a remaining activity at 1 µM (ZAP-70(h)) of 108%.
